Reference: patent publication US8378104B2 (OSI Pharmaceuticals, LLC, priority 2010, dated 2013)
Structures can show the parent of a compound that is named as a salt. Where two headings read alike, the source gives them in different places.

Columns and labels:
TAK1-TAB1 fusion protein = target: T1, TAK1-TAB1 fusion protein (Homo sapiens, UniProt O43318); assay: TAK1 biochemical assay (AlphaScreen, GST-MAP2K7 substrate)
T1 construct: purchased Carna
T1 sequence (O43318 with tags, fused parts or gaps limits assumed): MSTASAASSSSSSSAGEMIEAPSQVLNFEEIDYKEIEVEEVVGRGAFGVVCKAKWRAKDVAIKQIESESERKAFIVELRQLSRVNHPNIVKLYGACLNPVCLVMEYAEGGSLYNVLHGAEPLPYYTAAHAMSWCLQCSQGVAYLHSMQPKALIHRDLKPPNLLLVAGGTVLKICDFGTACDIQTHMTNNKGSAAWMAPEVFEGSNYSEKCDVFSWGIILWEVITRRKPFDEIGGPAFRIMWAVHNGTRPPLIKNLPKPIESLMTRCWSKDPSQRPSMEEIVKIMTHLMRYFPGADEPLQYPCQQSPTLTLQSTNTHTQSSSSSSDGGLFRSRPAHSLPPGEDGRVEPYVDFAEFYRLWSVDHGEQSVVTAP

pJNK in HCT-116 cells = assay: Phospho-JNK (Thr183/Tyr185) Meso Scale ELISA assay, TNFα-stimulated HCT-116 cells; assay type: cell-based; conditions: Homo sapiens, read-out: mean HCT-116 pJNK ELISA IC50 (Col. B)
Summary of the method: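 Meso Scale ELISA read of phospho-JNK (Thr183/Tyr185) in lysed HCT-116 cells. Cells were serum-reduced to 1% FCS for 2 hours, exposed to test drug for 4 hrs at 37° C, then given 10 ng/mL TNFα (final) for 10 minutes before lysis.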

p-p38 in HCT-116 cells = assay: Phospho-p38 Meso Scale ELISA assay, TNFα-stimulated HCT-116 cells; assay type: cell-based; conditions: Homo sapiens, read-out: mean HCT-116 p-p38 ELISA IC50 (Col. C)
Summary of the method: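 Phospho-p38 measured by Meso Scale ELISA on diluted lysates, captured overnight at 4° C. Before lysis, HCT-116 cells were serum-reduced (1% FCS, 2 h), treated with compounds 4 h at 37° C and stimulated 10 min with 10 ng/mL TNFα final.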

[1] = TAK1-TAB1 fusion protein, GST-MAP2K7 substrate, read-out: mean TAK1 IC50 (Col. A)

| Structure (SMILES) | IC50 (TAK1-TAB1 fusion protein; [1]) | IC50 (pJNK in HCT-116 cells) | IC50 (p-p38 in HCT-116 cells) | IC50 (TAK1-TAB1 fusion protein) |
| --- | --- | --- | --- | --- |
| CC(=O)N1CCC(n2cc(-c3cnc(N)c4oc(-c5csc6cncnc56)cc34)cn2)CC1 [Example 260, 1-(4-{4-[7-amino-2-(thieno[3,2-d]pyrimidin-7-yl)furo[2,3-c]pyridin-4-yl]-1H-pyrazol-1-yl}piperidin-1-yl)ethanone] | 0.1 to 1 µM | 1 to 10 µM | 1 to 10 µM | – |
| CC(=O)N1CCC(n2cc(-c3cnc(N)c4oc(-c5cn[nH]c5)cc34)cn2)CC1 [Example 115, 1-(4-{4-[7-amino-2-(1H-pyrazol-4-yl)furo[2,3-c]pyridin-4-yl]-1H-pyrazol-1-yl}piperidin-1-yl)ethanone] | 0.1 to 1 µM | 1 to 10 µM | > 10 µM | – |
| CC(=O)N1CCC(n2cc(-c3cnc(N)c4oc(-c5ccc6ncn(C)c6c5)cc34)cn2)CC1 [Example 111, 1-(4-{4-[7-amino-2-(1-methyl-1H-benzimidazol-6-yl)furo[2,3-c]pyridin-4-yl]-1H-pyrazol-1-yl}piperidin-1-yl)ethanone] | 0.1 to 1 µM | 1 to 10 µM | > 10 µM | – |
| CC(=O)N1CCC(n2cc(-c3cnc(N)c4oc(-c5cncc6cnsc56)cc34)cn2)CC1 [Example 262, 1-(4-{4-[7-amino-2-([1,2]thiazolo[4,5-c]pyridin-7-yl)furo[2,3-c]pyridin-4-yl]-1H-pyrazol-1-yl}piperidin-1-yl)ethanone Diformate Salt] | 0.1 to 1 µM | 0.1 to 1 µM | 0.1 to 1 µM | – |
| Nc1ncc(-c2cnn(C3CC4(C3)OCCO4)c2)c2cc(-c3csc4cnccc34)oc12 [Example 291, 4-[1-(5,8-dioxa-spiro[3.4]oct-2-yl)-1H-pyrazol-4-yl]-2-thieno[2,3-c]pyridin-3-yl-furo[2,3-c]pyridin-7-ylamine] | < 0.1 µM | 0.1 to 1 µM | 0.1 to 1 µM | – |
| C[C@]1(O)CC[C@@H](n2cc(-c3cnc(N)c4oc(-c5cccc6cnccc56)cc34)cn2)CC1 [Example 76, cis-4-{4-[7-amino-2-(isoquinolin-5-yl)furo[2,3-c]pyridin-4-yl]-1H-pyrazol-1-yl}-1-methylcyclohexanol] | 0.1 to 1 µM | 0.1 to 1 µM | 0.1 to 1 µM | – |
| CC(=O)N1CCC(n2cc(-c3cnc(N)c4oc(-c5ccc6[nH]nc(C#N)c6c5)cc34)cn2)CC1 [Example 236, 5-{4-[1-(1-acetylpiperidin-4-yl)-1H-pyrazol-4-yl]-7-aminofuro[2,3-c]pyridin-2-yl}-1H-indazole-3-carbonitrile] | 0.1 to 1 µM | 1 to 10 µM | > 10 µM | – |
| CC(=O)N1CCC(n2cc(-c3cnc(N)c4oc(-c5cnn(Cc6cccnc6)c5)cc34)cn2)CC1 [Example 148, 1-[4-(4-{7-amino-2-[1-(pyridin-3-ylmethyl)-1H-pyrazol-4-yl]furo[2,3-c]pyridin-4-yl}-1H-pyrazol-1-yl)piperidin-1-yl]ethanone] | 1 to 10 µM | > 10 µM | > 10 µM | – |
| CC(=O)N1CCC(n2cc(-c3cnc(N)c4oc(-c5ccc6c(c5)CCC(=O)N6)cc34)cn2)CC1 [Example 154, 6-{4-[1-(1-acetylpiperidin-4-yl)-1H-pyrazol-4-yl]-7-aminofuro[2,3-c]pyridin-2-yl}-3,4-dihydroquinolin-2(1H)-one] | 0.1 to 1 µM | 1 to 10 µM | 1 to 10 µM | – |

Continued, values first:

| IC50 (TAK1-TAB1 fusion protein; [1]) | IC50 (pJNK in HCT-116 cells) | IC50 (p-p38 in HCT-116 cells) | IC50 (TAK1-TAB1 fusion protein) | Structure (SMILES) |
| --- | --- | --- | --- | --- |
| 0.1 to 1 µM | 0.1 to 1 µM | 0.1 to 1 µM | – | CC(=O)N1CCC(n2cc(-c3cnc(N)c4oc(-c5c[nH]c6cc(C#N)ccc56)cc34)cn2)CC1 [Example 222, 3-{4-[1-(1-acetylpiperidin-4-yl)-1H-pyrazol-4-yl]-7-aminofuro[2,3-c]pyridin-2-yl}-1H-indole-6-carbonitrile] |
| 0.1 to 1 µM | 0.1 to 1 µM | 0.1 to 1 µM | – | CC(=O)N1CCC(n2cc(-c3cnc(N)c4oc(-c5ccc(O)cc5C)cc34)cn2)CC1 [Example 135, 1-(4-{4-[7-amino-2-(4-hydroxy-2-methylphenyl)furo[2,3-c]pyridin-4-yl]-1H-pyrazol-1-yl}piperidin-1-yl)ethanone] |
| 1 to 10 µM | 0.1 to 1 µM | 0.1 to 1 µM | – | CC(=O)N1CCC(n2cc(-c3cnc(N)c4oc(-c5ccc6occc6c5)cc34)cn2)CC1 [Example 114, 1-(4-{4-[7-amino-2-(1-benzofuran-5-yl)furo[2,3-c]pyridin-4-yl]-1H-pyrazol-1-yl)piperidin-1-yl]ethanone] |
| 0.1 to 1 µM | 0.1 to 1 µM | 0.1 to 1 µM | – | Nc1ncc(-c2cnn(C3CCN(C(=O)C4CC4)CC3)c2)c2cc(-c3cccc4cnccc34)oc12 [Example 52, (4-{4-[7-amino-2-(isoquinolin-5-yl)furo[2,3-c]pyridin-4-yl]-1H-pyrazol-1-yl}piperidin-1-yl)(cyclopropyl)methanone] |
| 0.1 to 1 µM | 0.1 to 1 µM | 0.1 to 1 µM | – | Nc1ncc(-c2cnn(C3CCN(CCO)CC3)c2)c2cc(-c3cccc4cnccc34)oc12 [Example 85, 2-(4-{-4-[7-amino-2-(isoquinolin-5-yl)furo[2,3-c]pyridin-4-yl]-1H-pyrazol-1-yl}piperidin-1-yl)ethanol] |
| – | 0.1 to 1 µM | 0.1 to 1 µM | 0.1 to 1 µM | Cn1cc(-c2cnc(N)c3oc(-c4csc5cnccc45)cc23)cn1 [Example 290, 4-(1-methyl-1H-pyrazol-4-yl)-2-thieno[2,3-c]pyridin-3-yl-furo[2,3-c]pyridin-7-ylamine] |
| 0.1 to 1 µM | 0.1 to 1 µM | 0.1 to 1 µM | – | CC(=O)N1CCC(n2cc(-c3cnc(N)c4oc(-c5c[nH]c6cc(F)ccc56)cc34)cn2)CC1 [Example 213, 1-(4-{4-[7-amino-2-(6-fluoro-1H-indol-3-yl)furo[2,3-c]pyridin-4-yl]-1H-pyrazol-1-yl}piperidin-1-yl)ethanone] |
| 0.1 to 1 µM | 0.1 to 1 µM | 0.1 to 1 µM | – | CC(=O)N1CCC(n2cc(-c3cnc(N)c4oc(-c5cccc6c5OC(F)(F)O6)cc34)cn2)CC1 [Example 191, 1-(4-{4-[7-amino-2-(2,2-difluoro-1,3-benzodioxol-4-yl)furo[2,3-c]pyridin-4-yl]-1H-pyrazol-1-yl}piperidin-1-yl)ethanone] |
| – | < 0.1 µM | < 0.1 µM | < 0.1 µM | Nc1ncc(-c2cnn([C@H]3CC[C@H](O)CC3)c2)c2cc(-c3cccc4nnsc34)oc12 [Example 229, trans-4-{4-[7-amino-2-(1,2,3-benzothiadiazol-7-yl)furo[2,3-c]pyridin-4-yl]-1H-pyrazol-1-yl}cyclohexanol] |
| 0.1 to 1 µM | < 0.1 µM | 0.1 to 1 µM | – | Nc1ncc(-c2cnn([C@H]3CC[C@H](O)CC3)c2)c2cc(-c3cccc4cnccc34)oc12 [Example 65, trans-4-{4-[7-amino-2-(isoquinolin-5-yl)furo[2,3-c]pyridin-4-yl]-1H-pyrazol-1-yl}cyclohexanol] |
| 0.1 to 1 µM | 0.1 to 1 µM | 0.1 to 1 µM | – | CSc1ccccc1-c1cc2c(-c3cnn(C4CCN(C(C)=O)CC4)c3)cnc(N)c2o1 [Example 216, 1-[4-(4-{7-amino-2-[2-(methylsulfanyl)phenyl]furo[2,3-c]pyridin-4-yl}-1H-pyrazol-1-yl)piperidin-1-yl]ethanone] |
| 0.1 to 1 µM | < 0.1 µM | 0.1 to 1 µM | – | CS(=O)(=O)N1CCC(n2cc(-c3cnc(N)c4oc(-c5cccc6cnccc56)cc34)cn2)CC1 [Example 80, 2-(isoquinolin-5-yl)-4-{1-[1-(methylsulfonyl)piperidin-4-yl]-1H-pyrazol-4-yl}furo[2,3-c]pyridin-7-amine] |
